The source of these data is paper PMC10649913 (Journal for Immunotherapy of Cancer, 2023).

Assay [1] concerns human T cells cocultured with moDCs. Put plainly: Human mixed lymphocyte reaction. The assay is classed as cell-based. The settings on record: LPS and IFN-γ-matured moDCs, 3 days, 1 nM–1 µM.
Assay [2] relates to coculture of H1299 NSCLC cells, primary human PBMCs, and primary human fibroblasts. Put plainly: BioMAP Oncology Panel. The format is cell-based. The settings on record: 0.37, 1.1, or 3.3 µM, 48 hours.
For assay [3], the system named is AhR. The settings on record: cited from earlier work.
The conditions of assay [4]: cited from earlier work.

Regarding `NS(=O)(=O)NCCNc1nonc1C(=NO)Nc1ccc(F)c(Br)c1` [epacadostat], the “IL-2 production from T cells (MLR)” value in assay [1] was “no effect”. Besides, in assay [2], the “Cytokine production (IFN-γ, IL-17, IL-2, IL-6, TNF-α)” value was “predominantly anti-inflammatory responses with decreases in IFN-γ, IL-2, IL-6, and IL-17”.

Take `CC(C)n1cnc2c(NCCc3ccc(O)cc3)nc(-c3csc4ccccc34)nc21` [SR1]: in assay [3], the Mouse cross-reactivity entry was “not mouse cross-reactive”.

In the case of `Cc1ccccc1N=Nc1ccc(NC(=O)c2ccnn2C)c(C)c1` [CH-223191], in assay [4], the AhR-independent activities entry is “AhR-independent proproliferative activities”.
